This note sets out measurements from patent US8309552B2, “Immunomodulating heterocyclic compounds” (Medigene AG, priority 2003, dated 2012).

Some results are limits rather than exact numbers.

One experiment addresses T1, CD80-CD28 interaction (Homo sapiens, UniProt P33681).
T1 sequence (P33681 35-242 limits assumed): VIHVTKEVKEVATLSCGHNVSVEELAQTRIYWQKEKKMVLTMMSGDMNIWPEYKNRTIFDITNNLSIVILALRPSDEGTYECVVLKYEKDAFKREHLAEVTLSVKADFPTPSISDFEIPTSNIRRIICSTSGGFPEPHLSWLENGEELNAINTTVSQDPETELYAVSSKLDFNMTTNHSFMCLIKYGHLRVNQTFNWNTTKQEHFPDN
The experiment in a line: Homogenous Time Resolved Fluorescence (HTRF) assay, cell free. The class given is binding. The note with it: cell free HTRF assay; concentration series 100 μM-1.7 nM; 4 hours at room temperature; read-out: Activity (EC50 in the HTRF assay). The method, boiled down:
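Europium and APC labels were linked through antibodies to CD28 and CD80 fusion proteins. Compounds were tested at 100 μM-1.7 nM for 4 h at room temperature in 50 mM Tris-HCl, 150 mM NaCl pH7.8, 0.1% BSA. Emission read at 665 and 615 nm (excitation 340 nm); non-specific signal measured with C215 Fab in place of CD80; EC50 reported in bands.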
With `CCC(CC)CNC(=O)Nc1ccc(-n2[nH]c3c(nnc4ccccc43)c2=O)cc1` [Example 221], the EC50 was > 10 µM.

Regarding `CC(=O)NCCCCNC(=O)Nc1ccc(-n2[nH]c3c(nnc4ccccc43)c2=O)cc1` [Example 222], the EC50 was < 1 µM.

In the case of `CC(C)(C)OC(=O)CCNC(=O)Nc1ccc(-n2[nH]c3c(nnc4ccccc43)c2=O)cc1` [Example 223], the EC50 fell in the range of 1 to 10 µM.

On to `O=C(NCCN1CCC(Cc2ccccc2)CC1)Nc1ccc(-n2[nH]c3c(nnc4ccccc43)c2=O)cc1` [Example 224], for which the EC50 is < 1 µM.

For the compound `COc1ccc(OCCNC(=O)Nc2ccc(-n3[nH]c4c(nnc5ccccc54)c3=O)cc2)cc1` [Example 225], the 50% effective concentration (EC50) was > 10 µM.

As for `O=C(Nc1ccc(-n2[nH]c3c(nnc4ccccc43)c2=O)cc1)NC1Cc2ccccc2C1` [Example 226], the EC50 is > 10 µM.

Turning to `O=C(NCCSc1cc(C(F)(F)F)nc2ccccc12)Nc1ccc(-n2[nH]c3c(nnc4ccccc43)c2=O)cc1` [Example 227], the half-maximal effective concentration (EC50) was > 10 µM.

For `O=C(NCCCCN1CCCC1)Nc1ccc(-n2[nH]c3c(nnc4ccccc43)c2=O)cc1` [Example 228], the EC50 was < 1 µM.

Turning to `O=C(NCCCN1CCCC1)Nc1ccc(-n2[nH]c3c(nnc4ccccc43)c2=O)cc1` [Example 229], the EC50 is < 1 µM.

Take `CN(C)CCCNC(=O)c1ccc(-n2[nH]c3c(nnc4c(F)cccc43)c2=O)cc1` [Example 232]: the EC50 is < 1 µM.

For `CN1C(C)(C)CC(NC(=O)c2ccc(-n3[nH]c4c(nnc5c(F)cccc54)c3=O)cc2)CC1(C)C` [Example 234], the EC50 was < 1 µM.

As to `COc1ccc(CNC(=O)c2ccc(-n3[nH]c4c(nnc5ccccc54)c3=O)cc2)c(OC)c1` [Example 236], the EC50 is > 10 µM.

`CN(C)c1ccc(CNC(=O)c2ccc(-n3[nH]c4c(nnc5ccccc54)c3=O)cc2)cc1` [Example 237]: the EC50 was < 1 µM.

Consider `O=C(NCC1CCCO1)c1ccc(-n2[nH]c3c(nnc4ccccc43)c2=O)cc1` (stereo not drawn) [Example 238], for which the EC50 lay in the range of 1 to 10 µM.

On to `O=C(NC1CCC1)c1ccc(-n2[nH]c3c(nnc4ccccc43)c2=O)cc1` [Example 239], for which the EC50 is 1 to 10 µM.

On to `COc1ccc(CNC(=O)c2ccc(-n3[nH]c4c(nnc5ccccc54)c3=O)cc2)cc1` [Example 240], for which the EC50 is < 1 µM.

`CCCCNC(=O)c1ccc(-n2[nH]c3c(nnc4ccccc43)c2=O)cc1` [Example 241]: the EC50 lay in the range of 1 to 10 µM.

In the case of `O=C(NCc1ccco1)c1ccc(-n2[nH]c3c(nnc4ccccc43)c2=O)cc1` [Example 242], the EC50 is < 1 µM.

Turning to `CC(C)NC(=O)c1ccc(-n2[nH]c3c(nnc4ccccc43)c2=O)cc1` [Example 243], the EC50 is < 1 µM.

Consider `O=C(NCC1CCCCC1)c1ccc(-n2[nH]c3c(nnc4ccccc43)c2=O)cc1` [Example 244], for which the EC50 is 1 to 10 µM.

Turning to `CCCCCCCNC(=O)c1ccc(-n2[nH]c3c(nnc4ccccc43)c2=O)cc1` [Example 245], the concentration giving a half-maximal response (EC50) fell in the range of 1 to 10 µM.

In the case of `C=CCNC(=O)c1ccc(-n2[nH]c3c(nnc4ccccc43)c2=O)cc1` [Example 246], the EC50 is < 1 µM.

On to `COCCCNC(=O)c1ccc(-n2[nH]c3c(nnc4ccccc43)c2=O)cc1` [Example 247], for which the EC50 was < 1 µM.

Turning to `O=C(NCc1cccc(C(F)(F)F)c1)c1ccc(-n2[nH]c3c(nnc4ccccc43)c2=O)cc1` [Example 248], the EC50 was > 10 µM.

In the case of `O=C(NCc1cccc(F)c1)c1ccc(-n2[nH]c3c(nnc4ccccc43)c2=O)cc1` [Example 250], the EC50 is < 1 µM.

Consider `CCCCCNC(=O)c1ccc(-n2[nH]c3c(nnc4ccccc43)c2=O)cc1` [Example 251], for which the EC50 was > 10 µM.

Take `O=C(NC1CCc2ccccc21)c1ccc(-n2[nH]c3c(nnc4ccccc43)c2=O)cc1` (stereo not drawn) [Example 252]: the EC50 is > 10 µM.

For `O=C(NCCSCc1c(F)cccc1Cl)c1ccc(-n2[nH]c3c(nnc4ccccc43)c2=O)cc1` [Example 254], the EC50 is > 10 µM.

As to `O=C(NCCc1cccs1)c1ccc(-n2[nH]c3c(nnc4ccccc43)c2=O)cc1` [Example 255], the EC50 is > 10 µM.

As for `O=C(NCC1CCNCC1)c1ccc(-n2[nH]c3c(nnc4ccccc43)c2=O)cc1` [Example 256], the EC50 was in the range of 1 to 10 µM.

For `CCC(C)NC(=O)c1ccc(-n2[nH]c3c(nnc4ccccc43)c2=O)cc1` (stereo not drawn) [Example 258], the 50% effective concentration (EC50) lay within 1 to 10 µM.

As for `O=C(NCCN1CCCC1)c1ccc(-n2[nH]c3c(nnc4ccccc43)c2=O)cc1` [Example 259], the EC50 was < 1 µM.

In the case of `CC(C)CNC(=O)c1ccc(-n2[nH]c3c(nnc4ccccc43)c2=O)cc1` [Example 260], the concentration giving a half-maximal response (EC50) lay within 1 to 10 µM.

Turning to `CC(NC(=O)Nc1ccc(-n2[nH]c3c(nnc4ccccc43)c2=O)cc1)C1CCCCC1` (stereo not drawn) [Example 261], the concentration giving a half-maximal response (EC50) was > 10 µM.

Consider `CC(NC(=O)Nc1ccc(-n2[nH]c3c(nnc4ccccc43)c2=O)cc1)C(C)(C)C` (stereo not drawn) [Example 262], for which the EC50 was > 10 µM.

In the case of `CC(C)C(C)NC(=O)Nc1ccc(-n2[nH]c3c(nnc4ccccc43)c2=O)cc1` (stereo not drawn) [Example 263], the EC50 fell in the range of 1 to 10 µM.

On to `CC(C)(C)OC(=O)N1CCC(CNC(=O)Nc2ccc(-n3[nH]c4c(nnc5ccccc54)c3=O)cc2)CC1` [Example 264], for which the 50% effective concentration (EC50) is > 10 µM.

In the case of `CN(CCNC(=O)Nc1ccc(-n2[nH]c3c(nnc4ccccc43)c2=O)cc1)C(=O)OC(C)(C)C` [Example 265], the EC50 is > 10 µM.

In the case of `O=C(NCCCCNC(=O)c1ccc(-n2[nH]c3c(nnc4ccccc43)c2=O)cc1)OCc1ccccc1` [Example 266], the EC50 was < 1 µM.

Take `O=C(NC1CONC1=O)c1ccc(-n2[nH]c3c(nnc4ccccc43)c2=O)cc1` (stereo not drawn) [Example 267]: the EC50 is 1 to 10 µM.

Turning to `O=C(NCCc1c[nH]c2ccccc12)c1ccc(-n2[nH]c3c(nnc4ccccc43)c2=O)cc1` [Example 268], the EC50 lay within 1 to 10 µM.

As to `CCCNCCNC(=O)c1ccc(-n2[nH]c3c(nnc4ccccc43)c2=O)cc1` [Example 269], the EC50 is > 10 µM.

In the case of `O=C(NCCc1ccccc1)c1ccc(-n2[nH]c3c(nnc4ccccc43)c2=O)cc1` [Example 270], the EC50 was > 10 µM.

Still in this experiment, the particulars now being: cell-free HTRF, compound concentration series 100 μM-1.7 nM, 4 hours at room temperature; read-out: Activity (EC50 in the HTRF assay).
Take `O=C(NCC1CCCO1)Nc1ccc(-n2[nH]c3c(nnc4ccccc43)c2=O)cc1` (stereo not drawn) [Example 198]: the EC50 was in the range of 1 to 10 µM.

`O=C(Nc1ccc(-n2[nH]c3c(nnc4ccccc43)c2=O)cc1)NC1CC2CCC1C2` (stereo not drawn) [Example 199]: the EC50 was > 10 µM.

For the compound `O=C(NCCSCc1ccccc1)Nc1ccc(-n2[nH]c3c(nnc4ccccc43)c2=O)cc1` [Example 200], the EC50 was > 10 µM.

For the compound `CC1C(NC(=O)Nc2ccc(-n3[nH]c4c(nnc5ccccc54)c3=O)cc2)CC2CC1C2(C)C` (stereo not drawn) [Example 201], the EC50 is > 10 µM.

Take `CC1C(NC(=O)Nc2ccc(-n3[nH]c4c(nnc5ccccc54)c3=O)cc2)CC2CC1C2(C)C` (stereo not drawn) [Example 202]: the concentration for a half-maximal effect (EC50) was > 10 µM.

Regarding `CCCC(C)NC(=O)Nc1ccc(-n2[nH]c3c(nnc4ccccc43)c2=O)cc1` (stereo not drawn) [Example 203], the EC50 is > 10 µM.

For the compound `O=C(NCC1CCCCCC1)Nc1ccc(-n2[nH]c3c(nnc4ccccc43)c2=O)cc1` [Example 204], the 50% effective concentration (EC50) was > 10 µM.

In the case of `CC(C)(C)OC(=O)CNC(=O)Nc1ccc(-n2[nH]c3c(nnc4ccccc43)c2=O)cc1` [Example 205], the EC50 was > 10 µM.

For `CCCCN(CCCC)CCNC(=O)Nc1ccc(-n2[nH]c3c(nnc4ccccc43)c2=O)cc1` [Example 206], the EC50 was < 1 µM.

On to `CCCCC(C)NC(=O)Nc1ccc(-n2[nH]c3c(nnc4ccccc43)c2=O)cc1` (stereo not drawn) [Example 207], for which the EC50 lay within 1 to 10 µM.

Regarding `O=C(NCCOc1ccccc1)Nc1ccc(-n2[nH]c3c(nnc4ccccc43)c2=O)cc1` [Example 208], the 50% effective concentration (EC50) fell in the range of 1 to 10 µM.

`C=C(C)C(=O)OCCNC(=O)Nc1ccc(-n2[nH]c3c(nnc4ccccc43)c2=O)cc1` [Example 209]: the EC50 was > 10 µM.

For the compound `COCC(C)NC(=O)Nc1ccc(-n2[nH]c3c(nnc4ccccc43)c2=O)cc1` (stereo not drawn) [Example 210], the EC50 is < 1 µM.

On to `O=C(Nc1ccc(-n2[nH]c3c(nnc4ccccc43)c2=O)cc1)NC1CCCC1OCc1ccccc1` (stereo not drawn) [Example 211], for which the EC50 is > 10 µM.

Consider `O=C(Nc1ccc(-n2[nH]c3c(nnc4ccccc43)c2=O)cc1)NC1CCCCC1OCc1ccccc1` (stereo not drawn) [Example 212], for which the EC50 is > 10 µM.

On to `CC(C)(C)OC(=O)NCCCNC(=O)Nc1ccc(-n2[nH]c3c(nnc4ccccc43)c2=O)cc1` [Example 213], for which the concentration for a half-maximal effect (EC50) was in the range of 1 to 10 µM.

With `O=C(Nc1ccc(-n2[nH]c3c(nnc4ccccc43)c2=O)cc1)NC1CCN(Cc2ccccc2)C1` (stereo not drawn) [Example 214], the EC50 was < 1 µM.

Consider `CCCCOC(=O)CNC(=O)Nc1ccc(-n2[nH]c3c(nnc4ccccc43)c2=O)cc1` [Example 215], for which the EC50 was > 10 µM.

As for `CCCCCOC(=O)CNC(=O)Nc1ccc(-n2[nH]c3c(nnc4ccccc43)c2=O)cc1` [Example 216], the half-maximal effective concentration (EC50) is > 10 µM.

On to `O=C(NCCc1cccnc1)Nc1ccc(-n2[nH]c3c(nnc4ccccc43)c2=O)cc1` [Example 217], for which the EC50 lay in the range of 1 to 10 µM.

On to `CC(C)CCC(C)NC(=O)Nc1ccc(-n2[nH]c3c(nnc4ccccc43)c2=O)cc1` (stereo not drawn) [Example 218], for which the EC50 was > 10 µM.

Regarding `O=C(NCCCCCNC(=O)OCc1ccccc1)Nc1ccc(-n2[nH]c3c(nnc4ccccc43)c2=O)cc1` [Example 219], the EC50 is 1 to 10 µM.

In the case of `CC(C)(C)OC(=O)NCCCCNC(=O)Nc1ccc(-n2[nH]c3c(nnc4ccccc43)c2=O)cc1` [Example 220], the EC50 is > 10 µM.
